According to patent US12286625B2, “Inhibition of mir-22 miRNA by APT-110” (AptamiR Therapeutics, Inc., priority 2016, dated 2025):
Read-outs that look alike come from different tables or passages of the source.

Legend:
DIO C57BL/6J male mice = test: APT-110 in 14-week old DIO mice on 60% high fat diet treated 6 weeks; assay type: in vivo, mouse
Method: A similar study was performed in 14-week old mice (n=9 per group) which were randomized into 2 groups according to similar body weights and kept on 60% high fat diet (Research Diet D12492) for 6 weeks. One group of mice received subcutaneous injections in the left inguinal fat pad of a custom-designed miR-22-3p inhibitor (APT-110, 18 nucleotides long, 15 mg/kg) on days 0, 2, and 4 of the first week, then once a week for the next 5 weeks. The other group kept on 60% high fat diet received saline injections.
Body composition was measured by NMR at the end of the study (week 6 of treatment). Fat mass was 30% lower in the APT-110 miR-22-3p inhibitor group on 60% fat diet than that in the control group on saline and 60% fat diet (11.29±0.87 vs. 16.11±0.87 grams, p<0.0017). Lean mass was similar in both groups at week 6 of treatment (21.74±0.99 vs. 22.33±0.63 grams).
DIO male C57BL/6J mice were started on a 60% high fat diet at the age of 6-week old and were randomized according to body weight into treatment groups (8 to 12 animals per group) at various ages. After acclimation for 1 to 2 weeks, the mice were administered subcutaneous injections of saline or a miR-22 antagomir in the left inguinal fat pad (injections on Days 0, 2, and 4, then once a week for up to 12 weeks) while they remained on the 60% high fat diet. In some studies, another control group of mice was switched back to a normal 10% fat chow at the time of treatment randomization.
Blood samples were collected by retro-orbital bleeds or cut tip of the tail. Mice underwent body composition analysis by NMR (Bruker LF50 BCA-Analyzer) while they were gently restrained to keep them quiet during this non-invasive measurement. Liver, heart, inguinal fat, perirenal or epididymal fat, and subscapular fat were weighed and collected for histology (10% formalin fixed, then transferred to 70% ethanol for shipment) and gene expression (flash frozen in duplicate). Spleens were weighed and discarded. Blood was collected and processed into serum or plasma at the time of necropsy by cardiocentesis. Serum level of alanine aminotransferase (ALT), aspartate aminotransferase (AST), glucose, insulin, cholesterol and triglycerides were measured.

DIO C57BL/6 male mice = assay type: in vivo, mouse; parameters: Plasma adiponectin: unit not given here
Method: A dedicated study was conducted under contract at the University of Buckingham Institute of Translational Medicine (Pr. M A Cawthorne, Pr. P Trayhurn, Dr. C. Stocker) to assess the energetic and metabolic responses to the APT-110 miR-22-3p inhibitor treatment in adult Diet-Inducted-Obese (DIO) C57BL/6 male mice over the course of 3 months. Twenty-four DIO male C57BL/6 mice, who started on 60% high fat diet at the age of 7 weeks, were purchased at 15 weeks of age from the Jackson Laboratory, USA. The mice remained on a 60% high fat diet (Research Diet D12492) throughout the experiment. The mice were kept on a 12 h light/12 h dark light cycle with lights on at 08h00 and at a room temperature of 25±1° C. The mice were allocated to 2 groups of 12 mice each, (2 mice/cage) so that mean and standard deviation for body weight, blood glucose and serum insulin were similar across both groups. Mice were acclimated for two weeks before treatment initiation.
For oral glucose tolerance test, food was removed six hours prior to the start of the glucose tolerance test (09h00) and animals were placed in clean cages. Mice were dosed with glucose at T=0 minutes. Glucose was dissolved in water and given to the mice by oral gavage at a dose of 2.5 g/kg p.o. Blood samples […] were taken from the cut tip of the tail after the application of Lidocaine gel (Biorex Laboratories UK) for the analysis of glucose concentration at −30, 0, 30, 60, 120 and 180 minutes relative to glucose administration. Blood samples were also taken at −30 and +30 minutes for insulin analysis (Crystal Chem Inc. Cat INS90090). Food was returned to the animals at the end of the glucose tolerance test. Plasma nonesterified Fatty Acids (NEFA, Crystal Wako Chemicals Gmbh, Neuss, Germany, Cat 999-75406), leptin (Crystal Chem. Inc., Cat LEP90030) and adiponectin (Alpco Diagnostics, Salem, New Hampshire, Cat 47-ADPMS-E01) were measured as per the manufacturers' recommendations. Body fat and lean content was measured by Nuclear Magnetic Resonance (NMR). Comparison with calibrated standards allowed identification of types of tissue by their density. Dedicated software was used to quantify amounts of adipose and […]. The mice were gently restrained, sufficient to keep them quiescent during this non-invasive technique.
To measure physical activity, mice were kept in their original cages of 2 mice per cage. Recordings were taken using an infra-red recorder linked to a laptop. Recordings were made on the hour every hour from 7 pm until 8 am. Each recording was of 10-minute duration. Lights went out at 8 pm and came on again at 8 am. Analysis of activity was done by virtually drawing 2 lines across each cage (thus dividing them into 3 equal parts). Recordings were analyzed by eye and the number of times a line was broken by a mouse in each 10-minute segment was scored. Energy expenditure was measured at several time points during the course of the study by open-circuit indirect calorimetry with mice kept in their home cages (6 cages of 2 mice per experimental group (Arch, J. R., et al., 2006; Arch, J. R. and P. Trayhurn, 2013).
At the end of the study, tissues and organs were collected, then frozen for future gene expression analysis or placed in 10% neutral buffered formalin solution (Sigma-Aldrich Cat HT501128), then washed in PBS, pH 7.4 and transferred to 70% ethanol for subsequent processing for histologic and immunohistochemistry analyses.
In some studies, non-esterified fatty acids (NEFA), plasma leptin and adiponectin were also measured and oral glucose tolerance tests (OGTT) were performed. Oral glucose tolerance test was performed as follows: Six hours prior to the start of the glucose tolerance test (09h00), food was removed and animals were given clean cages. Mice were dosed with glucose at T=0 minutes. […]

[1] = Day −2 (before treatment), 6 hours fast
[2] = end of 12-week study, Mean ± SEM

Question: Which “weight increase week 6 vs Week 0” value (DIO C57BL/6J male mice; 60% high fat diet, 15 mg/kg SC, saline 22%) does the source give for “5′-5mCpsTpsTps2′OMeCpsTpsTps5mCpsApsAps2′OMeCpsTpsGpsGps5mCpsApsGps5mCpsT-3′ [APT-110]” here?
Answer: 6%

Question: What about the “blood glucose after fasting for 4 hours” value (DIO C57BL/6J male mice; Day 35 of treatment, saline 245±8) of the same substance?
Answer: 183 ± 11 mg/dL

Question: And the random blood glucose (DIO C57BL/6J male mice; Day 44 of treatment, at necropsy, saline 341±9)?
Answer: 212 ± 12 mg/dL

Question: What about the “fat mass lower than control group on saline” value (DIO C57BL/6J male mice; NMR, week 6) of the same substance?
Answer: 30%

Question: What about the fat mass (DIO C57BL/6J male mice; NMR, week 6, saline 16.11±0.87) of the same substance?
Answer: 11.29±0.87 grams

Question: What about the lean mass (DIO C57BL/6J male mice; NMR, week 6, saline 22.33±0.63) of the same substance?
Answer: 21.74±0.99 grams

Question: And the body weight (DIO C57BL/6J male mice; Week 0 (baseline))?
Answer: 34.15±0.53 grams

Question: And the serum cholesterol (DIO C57BL/6J male mice; at necropsy, saline 164±6)?
Answer: 110 ± 5 mg/dL

Question: And the body weight (DIO C57BL/6J male mice; week 6, 60% high fat diet, saline 41.73±1.07)?
Answer: 36.16±0.67 grams

Question: What about the “24-hr energy expenditure vs saline” value (DIO C57BL/6 male mice; Day 10 of treatment) of the same substance?
Answer: did not show a difference

Question: What about the “energy expenditure vs saline” value (DIO C57BL/6 male mice; Day 11, confirmed on Day 28 and Day 52) of the same substance?
Answer: increase in energy expenditure

Question: And the Blood glucose (DIO C57BL/6 male mice; Day 44, 6 hours fast)?
Answer: 9.01 ± 0.19 mmol/L

Question: And the Plasma adiponectin (DIO C57BL/6 male mice; Day 44, 6 hours fast)?
Answer: 2.66 ± 0.15

Question: What about the Plasma insulin (DIO C57BL/6 male mice; Day 44, 6 hours fast) of the same substance?
Answer: 295 ± 25 pmol/L

Question: What about the Plasma leptin (DIO C57BL/6 male mice; Day 44, 6 hours fast) of the same substance?
Answer: 4.85 ± 0.42 nmol/L

Question: And the “Oral Glucose Tolerance Test profile” value (DIO C57BL/6 male mice; Day 75, glucose 2.5 g/kg p.o., saline mice diabetic profile)?
Answer: normal profile

Question: And the Blood glucose (DIO C57BL/6 male mice; Day 79, 6 hours fast)?
Answer: 5.71 ± 0.18 mmol/L

Question: What about the Plasma adiponectin (DIO C57BL/6 male mice; Day 79, 6 hours fast) of the same substance?
Answer: 3.16 ± 0.13

Question: What about the Plasma insulin (DIO C57BL/6 male mice; Day 79, 6 hours fast) of the same substance?
Answer: 220 ± 17 pmol/L

Question: What about the Plasma leptin (DIO C57BL/6 male mice; Day 79, 6 hours fast) of the same substance?
Answer: 4.21 ± 0.54 nmol/L

Question: And the Cholesterol (DIO C57BL/6 male mice; Day 85, 6-hour fast, p<0.0001)?
Answer: 4.67 ± 0.16 mmol/L

Question: And the “Non Esterified Fatty Acids” value (DIO C57BL/6 male mice; Day 85, 6-hour fast, p=0.003)?
Answer: 1.71 ± 0.08 mmol/L

Question: And the Triglycerides (DIO C57BL/6 male mice; Day 85, 6-hour fast, p=0.11)?
Answer: 1.46 ± 0.08 mmol/L

Question: What about the Blood glucose (DIO C57BL/6 male mice; [1]) of the same substance?
Answer: 6.69 ± 0.27 mmol/L

Question: And the Plasma adiponectin (DIO C57BL/6 male mice; [1])?
Answer: 3.16 ± 0.13

Question: And the Plasma insulin (DIO C57BL/6 male mice; [1])?
Answer: 179 ± 18 pmol/L

Question: And the Plasma leptin (DIO C57BL/6 male mice; [1])?
Answer: 3.11 ± 0.45 nmol/L

Question: And the “fat mass difference vs saline (NMR)” value (DIO C57BL/6 male mice; Week 12, Day 82)?
Answer: −12%

Question: And the “lean mass (NMR)” value (DIO C57BL/6 male mice; Week 12, Day 82)?
Answer: identical in both groups

Question: What about the “total daily energy expenditure greater than saline” value (DIO C57BL/6 male mice; average, day 11 to day 53) of the same substance?
Answer: 13%

Question: And the “insulin sensitivity (fasting Insulin/Glucose ratio over time)” value (DIO C57BL/6 male mice; course of the 12-week study, control group developed insulin resistance)?
Answer: maintain the same level of insulin sensitivity

Question: And the Epdidymal fat weight (DIO C57BL/6 male mice; [2])?
Answer: 1.8 ± 0.978 grams

Question: And the Inguinal fat weight (DIO C57BL/6 male mice; [2])?
Answer: 3.166 ± 0.135 grams

Question: What about the Liver weight (DIO C57BL/6 male mice; [2]) of the same substance?
Answer: 2.442 ± 0.127 grams

Question: What about the Peri-renal fat weight (DIO C57BL/6 male mice; [2]) of the same substance?
Answer: 1.183 ± 0.096 grams

Question: And the Subscapular fat weight (DIO C57BL/6 male mice; [2])?
Answer: 0.202 ± 0.020 grams

Question: What about the “weight gain vs mice receiving saline injections” value (DIO C57BL/6 male mice; week 12 of treatment, 60% high fat diet) of the same substance?
Answer: −30%
